Experiment [1] has as its system human epidermal melanocytes. The experiment in a line: Brightening in vitro study: melanin production of melanocytes. The class given is cell-based. The following applies: kojic acid 42 μg/ml in cell culture, 96 hours incubation. As for the experimental part:
In vitro study is used to evaluate the brightening effect and is determined by analysing the melanin production of melanocytes. The level of melanin produced by melanocytes determines the colour of skin, therefore, the brightening effect can be evaluated by the impact of formulation on the melanin production of melanocytes. In this study, human epidermal melanocytes are utilised. Kojic acid, traditionally used as a brightening ingredient, is used as the positive control. Kojic add is prepared in 15% ethanol/Hanks balanced salt solution and added into cell culture to give final concentration of 42 μg/ml in cell culture. 0.8 cm circles of nanofibre is directly applied into the cell culture to give a final concentration of ethyl ascorbic add of 3 μg/ml in cell culture. FIG. 5 presents the result of melanin concentration in cells only, cells treated with kojic acid and cells treated with nanofibres after 96 hours incubation time.
The absorbance of each sample is read at 405 nm and then compared with a standard curve of synthetic melanin to estimate the concentration of melanin in the cell culture. […] The melanin concentration is 101.5 μg/ml in cells only, 101.1 μg/ml in cells with kojic add and 97.48 μg/ml in cells with nanofibres. […] This is probably due to the added kojic add concentration being very low. […]

Another experiment concerns TNF-alpha. The experiment in a line: Anti-inflammatory in vitro study: TNF-alpha in reconstructed epidermis treated with SDS. The class given is cell-based. As to conditions: human reconstructed epidermis, 0.1% SDS, 24 hours incubation. As for the experimental part:
A human reconstructed epidermis is put in contact with the vegan nanofibres (topical application to mimic the real condition of use) and treated with an irritant inflammatory agent such as sodium dodecyl sulfate (SDS) to assess the capability of vegan nanofibers to counteract the inflammatory event. The evaluation is performed by using a non-treated epidermis as negative control and the epidermis treated only with the inflammatory agent (SDS) as a positive control. TNF-alpha is often associated with the inflammatory process and oxidative stress as an acute pro-inflammatory marker.

`O=c1cc(CO)occ1O` [kojic acid]: in experiment [1], the “inhibition to melanin production” value is reported as “slight inhibition to melanin production, but is not statistically significant” and the melanin concentration turned out to be 101.1 µg/mL.

Turning to `CCCCCCCCCCCCOS(=O)(=O)[O-].[Na+]` [SDS, sodium dodecyl sulfate], the “concentration of TNF-alpha” value with TNF-alpha worked out at 47.92 µg/mL.

Source of the values: patent US20220354752A1, “NANOFIBRE MATRIX MADE OF NATURAL POLYMERS WITH NATURAL FUNCTIONAL INGREDIENTS FOR COSMETIC PRODUCTS” (NANOLAYR LIMITED, priority 2019, published 2022).
